From patent publication US10898459B2, “Method of treating chronic kidney disease” (Panion & BF Biotech Inc., priority 2006, dated 2021)
Marks after values point to notes of the source that are not given here.

Tests used:
[1] = system: patients with end stage renal disease (ESRD) on hemodialysis; experiment: Randomized, double-blind, placebo-controlled, dose-ranging study of ferric citrate on serum phosphate, calcium and Ca x PO4; format: in vivo, human; conditions: for Serum Ca: Linear Regression: N.S.: Not Significant
Procedure: Ferric citrate is supplied in 500 mg capsules, whereas the placebo will be provided in identical-looking capsules (indistinguishable from those containing the active drug); the placebo capsules will contain sorbitol and colorant to match the powder color of the active capsules. The placebo capsule shells will be identical to the active capsule shells.
An non-limiting example of a dosing regimen is provided below. This is not meant to limit the invention as to how an effective amount of ferric citrate is selected, or the form in which it is provided or the frequency of administering the composition per day. The following merely illustrates how ferric citrate and placebo may be administered; e.g., as 500 mg capsules of identical appearance. All patients may receive (in a blinded fashion) 4 capsules with each of three meals, on a daily basis, for 28 days. Patients will be instructed to take the study medication within 10 minutes of finishing their meals (breakfast, lunch, and dinner).
Each patient's participation in the trial lasts for up to 8 weeks: the screening period (approximately 1-2 weeks), a 1-2 week washout, and 4 weeks of treatment with study medication.
The change in serum PO4 concentration at Days 14 and 28 from baseline.
The change in serum calcium concentration at Days 14 and 28 from baseline.
The change in the Ca′PO4 product at Days 14 and 28 from baseline.
Objectives: (1) To determine the effect of ferric citrate at doses of 2, 4 and 6 g daily, administered TID (three times a day), for 28 days on serum phosphate (PO4) levels in patients with end stage renal disease (ESRD). (2) To evaluate the safety of ferric citrate at doses of 2, 4, 6 g daily, administered TID, for 28 days in patients with ESRD.
Study Design: Randomized, double-blind, placebo-controlled, dose-ranging study to assess the effect of ferric citrate on serum phosphate concentrations in patients with ESRD on hemodialysis. Patients are assessed at Study Days 14 and 28 for effectiveness as measured by serum phosphate concentrations. Patients who received one or more doses of study medication are also assessed for safety.
Study Duration: 8 weeks (including the screening period, 2 weeks washout, 4 weeks treatment)
Ferric citrate is administered orally, and is given equally three times a day.

[2] = system: patients with end stage renal disease (ESRD); experiment: Open-label extension of Phase II study: serum creatinine level; format: in vivo, human; conditions: several patients who received 6 g/day
Text: Glomerular filtration rate (GFR) level correlates with structural kidney damage and is used as a golden standard to measure kidney function. GFR can be estimated by the biomarkers serum creatinine. As renal function deteriorates, kidney lost its function to excrete creatinine effectively and lead to creatinine retention in the body. Therefore, increase of serum creatinine indicates lowering GFR and is an important sign of kidney deterioration.
In an open-label extension of a Phase II clinical study: “randomized, double-blind, placebo-controlled, dose-ranging study of the effects of ferric citrate on serum phosphate in patients with end stage renal disease (ESRD)”, some of the patients were administered 2˜6 g/day of ferric citrate and serum creatinine level was monitored to assess kidney function.

[3] = 2 g/day (N = 31), Day 0 (baseline)
[4] = 4 g/day (N = 32), Day 0 (baseline)
[5] = 6 g/day (N = 32), Day 0 (baseline)
[6] = 6 g/day (N = 32), Day 28, P < 0.05 baseline change vs placebo
[7] = at 0, 2, and 6 gm/day, TID immediately after meals, oral

Question: With ferric citrate as the substance, how does the “Serum [Ca]” value [1, 3] read?
Answer: 8.78 ± 0.981 mg/dL

Question: What about the “Serum [PO4]” value [1, 3] of the same substance?
Answer: 7.1 ± 1.23 mg/dL

Question: What about the “[Ca] * [PO4]” value [1, 3] of the same substance?
Answer: 62.9 ± 13.25 (mg/dL)^2

Question: What about the “Serum [Ca]” value ([1]; 2 g/day (N = 31), Day 14) of the same substance?
Answer: 9.01 ± 1.232 mg/dL

Question: And the “Serum [PO4]” value ([1]; 2 g/day (N = 31), Day 14)?
Answer: 6.7 ± 1.50 mg/dL

Question: What about the “[Ca] * [PO4]” value ([1]; 2 g/day (N = 31), Day 14) of the same substance?
Answer: 60.3 ± 16.50 (mg/dL)^2

Question: What about the “Serum [Ca]” value ([1]; 2 g/day (N = 31), Day 28) of the same substance?
Answer: 9.00 ± 0.953 mg/dL

Question: And the “Serum [PO4]” value ([1]; 2 g/day (N = 31), Day 28)?
Answer: 6.9 ± 2.22 mg/dL

Question: What about the “[Ca] * [PO4]” value ([1]; 2 g/day (N = 31), Day 28) of the same substance?
Answer: 61.7 ± 21.25 (mg/dL)^2

Question: And the “Serum [Ca]” value [1, 4]?
Answer: 9.02 ± 0.913 mg/dL

Question: What about the “Serum [PO4]” value [1, 4] of the same substance?
Answer: 7.1 ± 1.27 mg/dL

Question: And the “[Ca] * [PO4]” value [1, 4]?
Answer: 63.5 ± 10.69 (mg/dL)^2

Question: And the “Serum [Ca]” value ([1]; 4 g/day (N = 32), Day 14)?
Answer: 9.47 ± 0.990 mg/dL

Question: And the “Serum [PO4]” value ([1]; 4 g/day (N = 32), Day 14)?
Answer: 6.4 ± 1.56 mg/dL

Question: What about the “[Ca] * [PO4]” value ([1]; 4 g/day (N = 32), Day 14) of the same substance?
Answer: 59.9 ± 13.89 (mg/dL)^2

Question: What about the “Serum [Ca]” value ([1]; 4 g/day (N = 32), Day 28) of the same substance?
Answer: 9.29 ± 0.960 mg/dL

Question: What about the “Serum [PO4]” value ([1]; 4 g/day (N = 32), Day 28) of the same substance?
Answer: 6.0 ± 1.33 mg/dL

Question: And the “[Ca] * [PO4]” value ([1]; 4 g/day (N = 32), Day 28)?
Answer: 55.4 ± 13.36 (mg/dL)^2

Question: And the “Serum [Ca]” value [1, 5]?
Answer: 8.99 ± 0.812 mg/dL

Question: And the “Serum [PO4]” value [1, 5]?
Answer: 7.3 ± 1.33 mg/dL

Question: And the “[Ca] * [PO4]” value [1, 5]?
Answer: 65.8 ± 12.19 (mg/dL)^2

Question: What about the “Serum [Ca]” value ([1]; 6 g/day (N = 32), Day 14) of the same substance?
Answer: 9.13 ± 0.909 mg/dL

Question: And the “Serum [PO4]” value ([1]; 6 g/day (N = 32), Day 14)?
Answer: 6.3 ± 1.72 mg/dL

Question: What about the “[Ca] * [PO4]” value ([1]; 6 g/day (N = 32), Day 14) of the same substance?
Answer: 57.5 ± 16.27 (mg/dL)^2

Question: And the “Serum [Ca]” value ([1]; 6 g/day (N = 32), Day 28)?
Answer: 9.26 ± 0.865 mg/dL

Question: And the “Serum [PO4]” value [1, 6]?
Answer: 5.8 ± 1.76 mg/dL

Question: And the “[Ca] * [PO4]” value [1, 6]?
Answer: 54.1 ± 17.68* (mg/dL)^2

Question: And the “change in Ca*PO4 levels” value ([1]; 6 gm/day dose at both 14 and 28 days)?
Answer: decreased and were statistically significant

Question: And the “Serum Ca: Dose Response” value ([1]; Day 0)?
Answer: No

Question: What about the “Ca × PO4: Linear Regression P” value ([1]; Day 14) of the same substance?
Answer: P = 0.0401

Question: What about the “Ca × PO4: Statistical Significant” value ([1]; Day 14) of the same substance?
Answer: No

Question: What about the “Serum Ca: Statistical Significant” value ([1]; Day 14) of the same substance?
Answer: No

Question: And the “Serum PO4: Statistical Significant” value ([1]; Day 14)?
Answer: No

Question: And the “Serum Ca: Linear Regression” value ([1]; Day 14)?
Answer: N.S.

Question: What about the “Ca × PO4: Dose Response” value ([1]; Day 14, placebo, 2, 4, 6 g/day) of the same substance?
Answer: Yes

Question: And the “Serum Ca: Dose Response” value ([1]; Day 14, placebo, 2, 4, 6 g/day)?
Answer: No

Question: And the “Serum PO4: Dose Response” value ([1]; Day 14, placebo, 2, 4, 6 g/day)?
Answer: No

Question: What about the “Ca × PO4: Linear Regression P” value ([1]; Day 28) of the same substance?
Answer: P = 0.0158

Question: What about the “Ca × PO4: Statistical Significant” value ([1]; Day 28) of the same substance?
Answer: Yes (6 g/day)

Question: And the “Serum Ca: Statistical Significant” value ([1]; Day 28)?
Answer: No

Question: What about the “Serum PO4: Linear Regression P” value ([1]; Day 28) of the same substance?
Answer: P = 0.0073

Question: What about the “Serum PO4: Statistical Significant” value ([1]; Day 28) of the same substance?
Answer: Yes (6 g/day)

Question: And the “Serum Ca: Linear Regression” value ([1]; Day 28)?
Answer: N.S.

Question: What about the “Ca × PO4: Dose Response” value ([1]; Day 28, placebo, 2, 4, 6 g/day) of the same substance?
Answer: Yes

Question: And the “Serum Ca: Dose Response” value ([1]; Day 28, placebo, 2, 4, 6 g/day)?
Answer: No

Question: And the “Serum PO4: Dose Response” value ([1]; Day 28, placebo, 2, 4, 6 g/day)?
Answer: Yes

Question: What about the “change in Ca*PO4” value [1, 7] of the same substance?
Answer: decrease

Question: What about the “change in serum PO4” value [1, 7] of the same substance?
Answer: decrease

Question: And the “change in serum calcium level” value ([1]; during the 28 days, 2, 4, and 6 gm/day)?
Answer: No significant change

Question: And the “ability to lower the serum phosphate levels” value ([1]; patients with ESRD)?
Answer: demonstrated

Question: And the serum creatinine level [2]?
Answer: trend of decreased serum creatinine level
